Assay [1] has as its system peripheral blood mononuclear cells (PBMCs). In words: IL-6 induction in fresh human PBMCs. Type of assay: cell-based. Conditions: human IL-6; NR = no response. The procedure: Tumor necrosis factor alpha (TNFα) and IL-6 production in peripheral blood mononuclear cells (PBMCs) was measured after exposure to various concentrations of the DAT compounds synthesized as shown above. Initial studies focused on two different methods of delivery of the DAT compounds to PBMC cultures. In the first delivery method, the indicated derivative compound was dissolved in isopropanol, serially diluted, and then dried to the bottom of a tissue culture plate. In the second delivery method, the indicated derivative compound was dissolved in DMSO and serially diluted into tissue culture media. In each method, PBMCs were added to the compounds and incubated at 37° C. TNFα (FIG. 1A) and IL-6 (FIG. 1B) were measured after 18-24 hours after treatment by ELISA assay.
The isolated PBMCs were exposed to increasing concentrations of the indicated compounds resuspended in DMSO and serially diluted in media. IL-6 levels were determined from supernatants eighteen hours after treatment (FIG. 3).

For assay [2], the system named is RAW264.7 cells. In words: Cytokine (TNFα) response of mouse macrophage cell line; Table 2 'Murine'. Also on record: Maximum cytokine response Murine: unit not given here. Type of assay: cell-based. Conditions: NR = no response. As for the experimental part: Compounds were also tested in a mouse macrophage cell line (FIG. 4B). RAW264.7 cells were subjected to increasing concentrations of the compounds and assessed for production of the cytokine TNFα.

Regarding `O=C(OC[C@H]1O[C@H](O[C@H]2O[C@H](COC(=O)c3cccc(C(F)(F)F)c3O)[C@@H](O)[C@H](O)[C@H]2O)[C@H](O)[C@@H](O)[C@@H]1O)c1cccc(C(F)(F)F)c1O` [UM1053], in assay [1], the “Maximum cytokine response h-IL-6” value came to 0.5 OD and the “Minimal Effective Concentration h-IL-6” value worked out at 100 µM.

For the compound `COc1ccc(C(F)(F)F)cc1C(=O)OC[C@H]1O[C@H](O[C@H]2O[C@H](COC(=O)c3cc(C(F)(F)F)ccc3OC)[C@@H](O)[C@H](O)[C@H]2O)[C@H](O)[C@@H](O)[C@@H]1O` [UM1045], in assay [2], the “Maximum cytokine response Murine” value is on record as 1.3 and the “Minimal Effective Concentration Murine” value turned out to be 0.05 µM.

In the case of `CCc1cc(CC)cc(C(=O)OCC2OC(OC3OC(COC(=O)c4cc(CC)cc(CC)c4)C(O)C(O)C3O)C(O)C(O)C2O)c1` (stereo not drawn) [UM1017], in assay [2], the “Maximum cytokine response Murine” value amounted to 2.5 and the “Minimal Effective Concentration Murine” value stood at 4.1 µM.

`Cc1cc(C)c(C)c(C(=O)OC[C@H]2O[C@H](O[C@H]3O[C@H](COC(=O)c4c(C)c(C)cc(C)c4C)[C@@H](O)[C@H](O)[C@H]3O)[C@H](O)[C@@H](O)[C@@H]2O)c1C` [UM1113]: in assay [2], the “Maximum cytokine response Murine” value is 11 and the “Minimal Effective Concentration Murine” value was 2.5 µM.

As for `O=C(OC[C@H]1O[C@H](O[C@H]2O[C@H](COC(=O)c3cc(O)cc(-c4ccccc4)c3)[C@@H](O)[C@H](O)[C@H]2O)[C@H](O)[C@@H](O)[C@@H]1O)c1cc(O)cc(-c2ccccc2)c1` [UM1061], in assay [2], the “Maximum cytokine response Murine” value is on record as 3 and the “Minimal Effective Concentration Murine” value was determined as 100 µM.

Consider `O=C(NC[C@H]1O[C@H](O[C@H]2O[C@H](CNC(=O)c3ccccc3C(F)(F)F)[C@@H](O)[C@H](O)[C@H]2O)[C@H](O)[C@@H](O)[C@@H]1O)c1ccccc1C(F)(F)F` [UM1112], for which, in assay [2], the “Maximum cytokine response Murine” value was 2 and the “Minimal Effective Concentration Murine” value was found to be 100 µM.

For the compound `Cc1cc(C)c(C(=O)OC[C@H]2O[C@H](O[C@H]3O[C@H](COC(=O)c4c(C)cc(C)cc4C)[C@@H](O)[C@H](O)[C@H]3O)[C@H](O)[C@@H](O)[C@@H]2O)c(C)c1` [UM1115], in assay [2], the “Maximum cytokine response Murine” value stood at 11 and the “Minimal Effective Concentration Murine” value turned out to be 3.3 µM.

Regarding `COc1cc(-c2cccc(C(=O)OC[C@H]3O[C@H](O[C@H]4O[C@H](COC(=O)c5cccc(-c6ccc(F)c(OC)c6)c5)[C@@H](O)[C@H](O)[C@H]4O)[C@H](O)[C@@H](O)[C@@H]3O)c2)ccc1F` [UM1059], in assay [2], the “Maximum cytokine response Murine” value is reported as 1.8 and the “Minimal Effective Concentration Murine” value was found to be 33 µM.

As for `Cc1ccc(-c2cccc(C(=O)OC[C@H]3O[C@H](O[C@H]4O[C@H](COC(=O)c5cccc(-c6ccc(C)cc6)c5)[C@@H](O)[C@H](O)[C@H]4O)[C@H](O)[C@@H](O)[C@@H]3O)c2)cc1` [UM1058], in assay [2], the “Maximum cytokine response Murine” value amounted to 2.5 and the “Minimal Effective Concentration Murine” value was found to be 33 µM.

As for `CCOc1cc(OCC)cc(C(=O)NC[C@H]2O[C@H](O[C@H]3O[C@H](CNC(=O)c4cc(OCC)cc(OCC)c4)[C@@H](O)[C@H](O)[C@H]3O)[C@H](O)[C@@H](O)[C@@H]2O)c1` [UM1105], in assay [2], the “Maximum cytokine response Murine” value stood at 11 and the “Minimal Effective Concentration Murine” value is 3 µM.

Regarding `O=C(OC[C@H]1O[C@H](O[C@H]2O[C@H](COC(=O)c3ccccc3-c3ccccc3)[C@@H](O)[C@H](O)[C@H]2O)[C@H](O)[C@@H](O)[C@@H]1O)c1ccccc1-c1ccccc1` [UM1039], in assay [2], the “Maximum cytokine response Murine” value is on record as 0.9 and the “Minimal Effective Concentration Murine” value was 33 µM.

On to `CN(C)c1cccc(C(=O)OC[C@H]2O[C@H](O[C@H]3O[C@H](COC(=O)c4cccc(N(C)C)c4)[C@@H](O)[C@H](O)[C@H]3O)[C@H](O)[C@@H](O)[C@@H]2O)c1` [UM1076], for which, in assay [2], the “Maximum cytokine response Murine” value came out at 1.3 and the “Minimal Effective Concentration Murine” value was found to be 3.7 µM.

Turning to `Cc1cc(C)cc(C(=O)NC[C@H]2O[C@H](O[C@H]3O[C@H](CNC(=O)c4cc(C)cc(C)c4)[C@@H](O)[C@H](O)[C@H]3O)[C@H](O)[C@@H](O)[C@@H]2O)c1` [UM1108], in assay [2], the “Maximum cytokine response Murine” value came to 33 and the “Minimal Effective Concentration Murine” value was determined as 3 µM.

`O=C(OC[C@H]1O[C@H](O[C@H]2O[C@H](CO)[C@@H](O)[C@H](O)[C@H]2O)[C@H](O)[C@@H](O)[C@@H]1O)c1ccc([N+](=O)[O-])cc1[N+](=O)[O-]` [UM1119]: in assay [2], the “Maximum cytokine response Murine” value is 11 and the “Minimal Effective Concentration Murine” value was determined as 2.2 µM.

As for `O=C(OC[C@H]1O[C@H](O[C@H]2O[C@H](COC(=O)c3cccc(-c4ccccc4O)c3)[C@@H](O)[C@H](O)[C@H]2O)[C@H](O)[C@@H](O)[C@@H]1O)c1cccc(-c2ccccc2O)c1` [UM1060], in assay [1], the “Maximum cytokine response h-IL-6” value was 3.3 OD and the “Minimal Effective Concentration h-IL-6” value amounted to 33.3 µM.

In the case of `O=C(OC[C@H]1O[C@H](O[C@H]2O[C@H](COC(=O)c3cccc(-c4ccccc4)c3)[C@@H](O)[C@H](O)[C@H]2O)[C@H](O)[C@@H](O)[C@@H]1O)c1cccc(-c2ccccc2)c1` [UM1040], in assay [2], the “Maximum cytokine response Murine” value is recorded as 0.9 and the “Minimal Effective Concentration Murine” value is 100 µM.

Turning to `Cc1ccc(C)c(C(C)(C)CC(=O)OC[C@H]2O[C@H](O[C@H]3O[C@H](COC(=O)CC(C)(C)c4cc(C)ccc4C)[C@@H](O)[C@H](O)[C@H]3O)[C@H](O)[C@@H](O)[C@@H]2O)c1` [UM1137], in assay [1], the “Maximum cytokine response h-IL-6” value was 1 OD and the “Minimal Effective Concentration h-IL-6” value came out at 100 µM.

For the compound `COc1cc(C(=O)OC[C@H]2O[C@H](O[C@H]3O[C@H](COC(=O)c4cc(OC)c(Br)c(OC)c4)[C@@H](O)[C@H](O)[C@H]3O)[C@H](O)[C@@H](O)[C@@H]2O)cc(OC)c1Br` [UM1077], in assay [1], the “Maximum cytokine response h-IL-6” value was 2.5 OD and the “Minimal Effective Concentration h-IL-6” value was 100 µM.

Consider `CCOc1cc(C(=O)OC[C@H]2O[C@H](O[C@H]3O[C@H](COC(=O)c4ccc(OCc5ccccc5)c(OCC)c4)[C@@H](O)[C@H](O)[C@H]3O)[C@H](O)[C@@H](O)[C@@H]2O)ccc1OCc1ccccc1` [UM1134], for which, in assay [1], the “Maximum cytokine response h-IL-6” value was 0.5 OD and the “Minimal Effective Concentration h-IL-6” value stood at 100 µM.

For `COc1cccc(C(=O)OC[C@H]2O[C@H](O[C@H]3O[C@H](COC(=O)c4cccc(OC)c4OC)[C@@H](O)[C@H](O)[C@H]3O)[C@H](O)[C@@H](O)[C@@H]2O)c1OC` [UM1013], in assay [2], the “Maximum cytokine response Murine” value worked out at 3 and the “Minimal Effective Concentration Murine” value came out at 37 µM.

For the compound `O=C(OC[C@H]1O[C@H](O[C@H]2O[C@H](COC(=O)c3cccc(-c4ccccc4)c3O)[C@@H](O)[C@H](O)[C@H]2O)[C@H](O)[C@@H](O)[C@@H]1O)c1cccc(-c2ccccc2)c1O` [UM1063], in assay [2], the “Maximum cytokine response Murine” value turned out to be 2.5 and the “Minimal Effective Concentration Murine” value amounted to 100 µM.

Turning to `O=C(OC[C@H]1O[C@H](O[C@H]2O[C@H](CO)[C@@H](O)[C@H](O)[C@H]2O)[C@H](O)[C@@H](O)[C@@H]1O)c1ccccc1C(F)(F)F` [UM1121], in assay [2], the “Maximum cytokine response Murine” value stood at 11 and the “Minimal Effective Concentration Murine” value is 2.5 µM.

`O=C(CCc1ccc(O)c(-c2ccccc2)c1)OC[C@H]1O[C@H](O[C@H]2O[C@H](COC(=O)CCc3ccc(O)c(-c4ccccc4)c3)[C@@H](O)[C@H](O)[C@H]2O)[C@H](O)[C@@H](O)[C@@H]1O` [UM1064]: in assay [2], the “Maximum cytokine response Murine” value is 2.5 and the “Minimal Effective Concentration Murine” value was 100 µM.

Turning to `CC(C)(C)c1ccc(O)c(C(=O)NC[C@H]2O[C@H](O[C@H]3O[C@H](CNC(=O)c4cc(C(C)(C)C)ccc4O)[C@@H](O)[C@H](O)[C@H]3O)[C@H](O)[C@@H](O)[C@@H]2O)c1` [UM1106], in assay [2], the “Maximum cytokine response Murine” value was 11 and the “Minimal Effective Concentration Murine” value is 3 µM.

For the compound `O=C(OC[C@H]1O[C@H](O[C@H]2O[C@H](COC(=O)c3cc(C(F)(F)F)cc(C(F)(F)F)c3)[C@@H](O)[C@H](O)[C@H]2O)[C@H](O)[C@@H](O)[C@@H]1O)c1cc(C(F)(F)F)cc(C(F)(F)F)c1` [UM1054], in assay [1], the “Maximum cytokine response h-IL-6” value was 1.5 OD and the “Minimal Effective Concentration h-IL-6” value turned out to be 100 µM.

As for `CCc1cc(CC)cc(C(=O)NC[C@H]2O[C@H](O[C@H]3O[C@H](CNC(=O)c4cc(CC)cc(CC)c4)[C@@H](O)[C@H](O)[C@H]3O)[C@H](O)[C@@H](O)[C@@H]2O)c1` [UM1109], in assay [2], the “Maximum cytokine response Murine” value came out at 0.4 and the “Minimal Effective Concentration Murine” value came out at 3.2 µM.

Consider `CCCOc1cc(OCCC)cc(C(=O)OC[C@H]2O[C@H](O[C@H]3O[C@H](COC(=O)c4cc(OCCC)cc(OCCC)c4)[C@@H](O)[C@H](O)[C@H]3O)[C@H](O)[C@@H](O)[C@@H]2O)c1` [UM1050], for which, in assay [1], the “Maximum cytokine response h-IL-6” value worked out at 3.3 OD and the “Minimal Effective Concentration h-IL-6” value was 9 µM.

As for `COc1ccc(C(=O)OC[C@H]2O[C@H](O[C@H]3O[C@H](COC(=O)c4ccc(OC)cc4C(F)(F)F)[C@@H](O)[C@H](O)[C@H]3O)[C@H](O)[C@@H](O)[C@@H]2O)c(C(F)(F)F)c1` [UM1067], in assay [2], the “Maximum cytokine response Murine” value is 1.5 and the “Minimal Effective Concentration Murine” value was 100 µM.

For `Cc1cccc(C)c1C(=O)OC[C@H]1O[C@H](O[C@H]2O[C@H](COC(=O)c3c(C)cccc3C)[C@@H](O)[C@H](O)[C@H]2O)[C@H](O)[C@@H](O)[C@@H]1O` [UM1114], in assay [2], the “Maximum cytokine response Murine” value was determined as 11 and the “Minimal Effective Concentration Murine” value turned out to be 2.5 µM.

Turning to `O=C(OC[C@H]1O[C@H](O[C@H]2O[C@H](COC(=O)c3cccc(-c4cccc(O)c4)c3)[C@@H](O)[C@H](O)[C@H]2O)[C@H](O)[C@@H](O)[C@@H]1O)c1cccc(-c2cccc(O)c2)c1` [UM1057], in assay [2], the “Maximum cytokine response Murine” value was determined as 1.8 and the “Minimal Effective Concentration Murine” value is 33 µM.

The values above are taken from patent US12319709B2, “Diaryl trehalose compounds and uses thereof” (THE UNIVERSITY OF MONTANA, priority 2018, dated 2025).
